Measured values reported in publication PMC8688955 (Frontiers in Pharmacology, 2021).
Like-named read-outs stand apart in the source and are kept apart here.

Experiments:
CI-AMPARs = molecular target: T1, CI-AMPARs (Rattus norvegicus, UniProt P19491, Q607R); assay: Whole-cell patch-clamp of kainate-induced currents in isolated hippocampal CA1 pyramidal neurons; type: cell-based, Wistar rat; details: for % block: representative recording; for inhibition at 30 µM: 30 µM phenytoin, n = 7; for inhibition at 100 µM: 100 µM phenytoin, read-out: % inhibition; for inhibition at 50 µM: n = 6
T1 construct: activity against native calcium-permeable AMPA receptors (CP-AMPARs) and calcium-impermeable AMPA receptors (CI-AMPARs); endogenous in cells; host or cells: acutely isolated pyramidal neurons from the CA1 area of Wistar rat hippocampal slices
T1 sequence (P19491 22-883 Q607R): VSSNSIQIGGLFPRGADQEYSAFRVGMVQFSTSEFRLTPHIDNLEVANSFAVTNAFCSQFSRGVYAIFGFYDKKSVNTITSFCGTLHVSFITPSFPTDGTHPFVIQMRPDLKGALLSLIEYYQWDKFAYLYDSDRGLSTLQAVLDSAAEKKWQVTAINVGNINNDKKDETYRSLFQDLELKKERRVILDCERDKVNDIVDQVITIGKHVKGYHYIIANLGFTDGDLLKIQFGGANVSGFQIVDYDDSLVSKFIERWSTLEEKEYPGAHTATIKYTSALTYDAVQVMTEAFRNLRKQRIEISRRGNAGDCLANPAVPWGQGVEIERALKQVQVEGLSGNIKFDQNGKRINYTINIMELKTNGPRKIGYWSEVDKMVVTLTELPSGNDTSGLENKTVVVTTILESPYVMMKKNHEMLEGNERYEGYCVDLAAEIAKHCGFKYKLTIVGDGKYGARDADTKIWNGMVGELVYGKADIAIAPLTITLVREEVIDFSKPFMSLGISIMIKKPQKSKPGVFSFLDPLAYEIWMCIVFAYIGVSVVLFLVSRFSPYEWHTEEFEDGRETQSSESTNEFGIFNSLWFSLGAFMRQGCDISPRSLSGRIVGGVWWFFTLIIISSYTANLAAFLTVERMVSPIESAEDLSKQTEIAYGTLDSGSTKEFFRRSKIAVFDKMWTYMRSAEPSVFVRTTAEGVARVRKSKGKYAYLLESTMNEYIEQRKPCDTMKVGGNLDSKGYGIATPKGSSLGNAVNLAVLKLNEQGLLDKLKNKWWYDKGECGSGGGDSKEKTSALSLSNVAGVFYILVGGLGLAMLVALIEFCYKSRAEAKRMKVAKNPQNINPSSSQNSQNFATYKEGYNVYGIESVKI
Protocol: All experimental procedures were approved by the Animal Care and Use Committee of the I.M. Sechenov Institute of Evolutionary Physiology and Biochemistry of the Russian Academy of Sciences. Wistar rats (13–19 days old) were anesthetized with sevoflurane and then decapitated. Maximum effort was made to minimize the number of animals used. Brains were removed quickly and cooled to 2–4°C in an ice bath. […] The antagonism of CI-AMPARs was studied on pyramidal neurons from the CA1 area of the hippocampus.
Series resistance of about 20 MΩ was compensated by 70–80% and monitored during experiments. Currents were recorded using an EPC-8 amplifier (HEKA Electronics, Lambrecht, Germany), filtered at 5 kHz, sampled, and stored on a personal computer. Drugs were applied using the RSC-200 perfusion system (BioLogic Science Instruments, Claix, France) under computer control. The solution exchange time in the whole-cell mode was 50–60 ms. […] The pipette solution contained (in mM) CsF 100, CsCl 40, NaCl 5, CaCl2 0.5, EGTA 5, and HEPES 10 (pH was adjusted to 7.2 with CsOH). Experiments were performed at room temperature (22–24°C). […] Lamotrigine, topiramate, levetiracetam, felbamate, carbamazepine, tiagabin, vigabatrin, zonisamide, and gabapentin were purchased from Tocris Bioscience (Bristol, United Kingdom). Perampanel was from MedChemExpress (Stockholm, Sweden). Kinetics of transient processes of more than 20-ms duration was approximated by exponential functions. Experiments were performed at −80 mV holding voltage. All experimental data are presented as mean ± SD estimated from at least four experiments. Significance of the effects was tested with paired t test. Differences were considered significant at p < 0.05. 3D structures of compounds were calculated by the ZMM software (zmmsoft.ca).

[1] = Solubility in the extracellular solution; type: physicochemical; details: concentrations above 500 µM could not be tested
Protocol: The whole-cell patch-clamp technique was used for recording of membrane currents generated in response to applications of kainate. Series resistance of about 20 MΩ was compensated by 70–80% and monitored during experiments. Currents were recorded using an EPC-8 amplifier (HEKA Electronics, Lambrecht, Germany), filtered at 5 kHz, sampled, and stored on a personal computer. Drugs were applied using the RSC-200 perfusion system (BioLogic Science Instruments, Claix, France) under computer control. The solution exchange time in the whole-cell mode was 50–60 ms. The extracellular solution contained (in mM) NaCl 143, KCl 5, MgCl2 2.0, CaCl2 2.5, D-glucose 18, and HEPES 10 (pH was adjusted to 7.3 with HCl). The pipette solution contained (in mM) CsF 100, CsCl 40, NaCl 5, CaCl2 0.5, EGTA 5, and HEPES 10 (pH was adjusted to 7.2 with CsOH). Experiments were performed at room temperature (22–24°C). […] Lamotrigine, topiramate, levetiracetam, felbamate, carbamazepine, tiagabin, vigabatrin, zonisamide, and gabapentin were purchased from Tocris Bioscience (Bristol, United Kingdom). Perampanel was from MedChemExpress (Stockholm, Sweden). Kinetics of transient processes of more than 20-ms duration was approximated by exponential functions. Experiments were performed at −80 mV holding voltage. […] 3D structures of compounds were calculated by the ZMM software (zmmsoft.ca).

[2] = molecular target: non-NMDA glutamate receptors; set-up: method as in Phillips et al., 1997; details: neocortical wedges; ref Phillips et al., 1997; cited from earlier work
[3] = double-pulse protocol, 30-s pause

**Q.** What does the source list for `O=C1NC(=O)C(c2ccccc2)(c2ccccc2)N1` [Phenytoin]?
**A.** % block (CI-AMPARs; 10 μM phenytoin, Figure 1A): 28%; inhibition at 30 µM (CI-AMPARs; 50 µM kainate): 55 ± 3%; inhibition at 30 µM (CI-AMPARs; 500 µM kainate): 40 ± 7%; % block (CI-AMPARs; 30 μM phenytoin, Figure 1A): 52%; Washout kinetics τ (CI-AMPARs; 50 µM phenytoin): 1,100 ± 200 ms; Activity drop in the presence of cyclothiazide (CI-AMPARs; 100 µM cyclothiazide, 50 µM kainate): Yes; inhibition at 100 µM (CI-AMPARs; 50 µM kainate, absence of cyclothiazide): 74 ± 4%; inhibition at 100 µM (CI-AMPARs; 50 µM kainate, presence of 100 µM cyclothiazide): 21 ± 7%; % block (CI-AMPARs; 100 μM phenytoin, Figure 1A): 75%; inhibition at 300 µM (CI-AMPARs; 300 µM compound, read-out: percentage of inhibition at 300-µM concentration): ≥ 80%; τ of the testing response to kainate in the trapping protocol (CI-AMPARs; 300 µM phenytoin, 500 µM kainate, n = 4): 81 ± 17 ms; inhibition at 300 µM (CI-AMPARs; 300 µM phenytoin, coapplication with agonist, n = 5, read-out: % inhibition of open AMPA receptor channels): 87 ± 5%; inhibition at 300 µM (CI-AMPARs; 300 µM phenytoin, preapplication without agonist, n = 5, read-out: % inhibition of closed AMPA receptor channels): 37 ± 7%; % block (CI-AMPARs; 300 μM phenytoin, Figure 1A): 87%; inhibition of kainate-induced currents (CI-AMPARs; 500 µM phenytoin, highest concentration tested): almost complete inhibition; Activity drop at high (500 µM) kainate concentration (CI-AMPARs; 50 vs 500 µM kainate): Yes; decrease in the % of inhibition with the increase in agonist concentration (CI-AMPARs; 50 vs 500 µM kainate): 10–15%; % block (CI-AMPARs; Phenytoin, 30 μM, Ka 50 μM, Figure 3A): 57%; % block (CI-AMPARs; Phenytoin, 30 μM, Ka 500 μM, Figure 3A): 44%; % block (CI-AMPARs; Phenytoin, 100 μM, Kainate, 50 μM + cyclothiazide, 100 μM, Figure 5C): 19%; % block (CI-AMPARs; Phenytoin, 100 μM, Kainate, 50 μM, Figure 5B): 74%; Difference in the % of inhibition in coapplication and preapplication protocols (CI-AMPARs; coapplication with kainate vs preapplication without kainate): Yes; More active against CI-AMPARs (CI-AMPARs; comparison of CI-AMPARs and CP-AMPARs): Yes; Trap in kainate 100 µM (CI-AMPARs; [3]): Yes; Trap in kainate 500 µM (CI-AMPARs; [3]): questionable; Trap in kainate 100 µM (CI-AMPARs; double-pulse protocol, 30-s pause, listed as phenytoin): pronounced trapping; Hill coefficient (CI-AMPARs; inhibition of CI-AMPARs, Hill equation): 0.9 ± 0.2; inhibition at 50 µM (CI-AMPARs; pH 7.4, 50 µM phenytoin, pH 7.4): 60 ± 3%; pH-dependence (CI-AMPARs; pH 7.4 vs 9.0): Yes; inhibition at 50 µM (CI-AMPARs; pH 9, 50 µM phenytoin, pH 9.0): 28 ± 8%; % block (CI-AMPARs; phenytoin 50 μM, pH 7.4, Kainate, 100 μM, Figure 10A): 62%; % block (CI-AMPARs; phenytoin 50 μM, pH 9.0, Kainate, 100 μM, Figure 10A): 29%; solubility in the extracellular solution [1]: poor solubility; IC50 [2]: ≥ 100 µM
